According to patent publication US7884116B2, “Octahydronaphthalene derivative and medicine” (Nippon Shinyaku Co., Ltd., priority 2003, dated 2011):
Marks after values point to notes of the source that are not given here.

Tests used:
[1] = reported in non-patent reference 14; cited from earlier work
Solubility in solvents = format: physicochemical; conditions: methanol, chloroform, acetone, water, hexane
[2] = test system: ICAM-1 expressed on HUVEC; assay: Test about suppression of ICAM-1 expression (enzyme immuno assay, EIA), TNF-α-stimulated HUVEC; format: cell-based; conditions: Homo sapiens, TNF-α 0.3 ng/ml
Experimental: Using a culture broth containing serum for vascular endothelial cell (manufactured by Nissui Pharmaceutical Co., Ltd.) as a culture medium, HUVEC (umbilical vein endothelial cell manufactured by Morinaga Bioscience Institute) was cultured in a collagen-treated flask by the routine method.
For carrying out a test about the suppression of ICAM-1 expression with HUVEC, a collagen-treated 96-well plate was used, where HUVEC was added at 1 to 2×10^4 cells/well while the culture medium was added at 100 to 200 μl/well. The cell was cultured in 5% CO2 at 37° C. for 48 to 72 hours. Before adding a test solution, the culture medium (80 μl) was exchanged, to which 10 μl of a test solution preliminarily diluted was then added. The plate was allowed to stand alone in a CO2 incubator. 2 hours later, 10 μl of TNF-α (recombinant human TNF-α, manufactured by Genzyme) was added (to a final concentration of 0.3 ng/ml). The resulting plate was again allowed to stand alone in the CO2 incubator. 16 to 22 hours later, the cell was fixed with 1% p-formaldehyde solution. The cell was rinsed with a phosphate buffer containing Ca^2+ and Mg^2+, which was then treated with an anti-human ICAM-1 antibody (mouse IgG1, manufactured by Kyowa Medics) at ambient temperature for 30 minutes. After the cell was rinsed again with the phosphate buffer, the cell was treated with a peroxide-labeled anti-mouse IgG (H+L) (manufactured by Organon Teknik Corp.) for another 30 minutes. After the cell was again rinsed with the phosphate buffer, the color developed was measured, using a peroxidase chromogenic kit (manufactured by Sumitomo Bakelite Co., Ltd.), to determine ICAM-1 expressed on HUVEC as an expression-inhibiting ratio (%) to a non-drug group to calculate the IC50 value.

[3] = test system: footpad thickness, MeHSA-sensitized C57BL/6 mouse; assay: Methylated human serum albumin-induced delayed hypersensitivity test (MeHSA-DTH); format: in vivo; conditions: oral, twice, footpad thickness 24 hours after induction
Experimental: Methylated human serum albumin (MeHSA) was dissolved in physiological saline to 5 mg/ml, which was then mixed with an equal volume of the complete Freund's adjuvant (manufactured by Iatron), to prepare an emulsion. Next, 100 μl of the prepared emulsion was injected subcutaneously into a 8-week-old male C57BL/6 mouse, for antigen sensitization. Seven days thereafter, MeHSA was dissolved in physiological saline to 1 mg/ml, which was injected at 25 μl subcutaneously into the footpad of the right hind limb, to trigger a reaction. The thickness of the footpad was measured 24 hours after the induction of the reaction, to calculate the difference from the thickness thereof before the induction of the reaction, to make an assessment. Additionally, drugs were orally given twice, namely one hour before the induction of the reaction and 16 hours after the induction thereof.

Row | SMILES | IC50 [2] | further results
1 | COC(=O)/C=C/C=C/[C@@H]1[C@H]2[C@H](C)[C@@H](O)[C@H](C)C[C@@H]2C=C[C@@H]1C [Coprophilin] | – | Antibacterial activity [1]: has an antibacterial activity
2 | C/C(=C\C=C\[C@@H]1[C@H]2[C@H](C)[C@@H](O)[C@H](C)C[C@@H]2C=C[C@@H]1C)C(=O)O [Example 1, (2E,4E)-5-[(1S,2S,4aR,6R,7S,8S,8aS)-7-hydroxy-2,6,8-trimethyl-1,2,4a,5,6,7,8,8a-octahydronaphthalen-1-yl]-2-methylpenta-2,4-dienoic acid] | 59 µM | Solubility (Solubility in solvents): soluble in methanol, chloroform and acetone but insoluble in water and hexane
3 | COC(=O)/C(C)=C/C=C/[C@@H]1[C@H]2[C@H](C)[C@@H](O)[C@H](C)C[C@@H]2C=C[C@@H]1C [Example 2, Methyl (2E,4E)-5-[(1S,2S,4aR,6R,7S,8S,8aS)-7-hydroxy-2,6,8-trimethyl-1,2,4a,5,6,7,8,8a-octahydronaphthalen-1-yl]-2-methylpenta-2,4-dienoate] | 0.67 µM | melting point: 54 to 57 °C
4 | C/C(=C\C=C\[C@@H]1[C@H]2[C@H](C)[C@@H](O)[C@H](C)C[C@@H]2C=C[C@@H]1C)CO [Example 3, (2E,4E)-5-[(1S,2S,4aR,6R,7S,8S,8aS)-7-Hydroxy-2,6,8-trimethyl-1,2,4a,5,6,7,8,8a-octahydronaphthalen-1-yl]-2-methylpenta-2,4-dien-1-ol] | 9.9 µM | –
5 | C/C(=C\C=C\[C@@H]1[C@H]2[C@H](C)[C@@H](O)[C@H](C)C[C@@H]2C=C[C@@H]1C)C(=O)NCc1ccncc1 [Example 6, N-(Pyridin-4-ylmethyl)-(2E,4E)-5-[(1S,2S,4aR,6R,7S,8S,8aS)-7-hydroxy-2,6,8-trimethyl-1,2,4a,5,6,7,8,8a-octahydronaphthalen-1-yl]-2-methylpenta-2,4-dienamide] | 0.59 µM | Suppression ratio (%) ([3]; 10 mg/kg): 27.8* %; Suppression ratio (%) ([3]; 30 mg/kg): 35.7** %
6 | C/C(=C\C=C\[C@@H]1[C@H]2[C@H](C)[C@@H](O)[C@H](C)C[C@@H]2C=C[C@@H]1C)C(=O)NCc1ccccn1 [Example 7, N-(Pyridin-2-ylmethyl)-(2E,4E)-5-[(1S,2S,4aR,6R,7S,8S,8aS)-7-hydroxy-2,6,8-trimethyl-1,2,4a,5,6,7,8,8a-octahydronaphthalen-1-yl]-2-methylpenta-2,4-dienamide] | 2 µM | –
7 | C/C(=C\C=C\[C@@H]1[C@H]2[C@H](C)[C@@H](O)[C@H](C)C[C@@H]2C=C[C@@H]1C)C(=O)NCc1ccccc1 [Example 8, N-Benzyl-(2E,4E)-5-[(1S,2S,4aR,6R,7S,8S,8aS)-7-hydroxy-2,6,8-trimethyl-1,2,4a,5,6,7,8,8a-octahydronaphthalen-1-yl]-2-methylpenta-2,4-dienamide] | 0.47 µM | –
8 | COc1cccc(CNC(=O)/C(C)=C/C=C/[C@@H]2[C@H]3[C@H](C)[C@@H](O)[C@H](C)C[C@@H]3C=C[C@@H]2C)c1 [Example 9, N-(3-Methoxybenzyl)-(2E,4E)-5-[(1S,2S,4aR,6R,7S,8S,8aS)-7-hydroxy-2,6,8-trimethyl-1,2,4a,5,6,7,8,8a-octahydronaphthalen-1-yl]-2-methylpenta-2,4-dienamide] | 2.1 µM | –
9 | C/C(=C\C=C\[C@@H]1[C@H]2[C@H](C)[C@@H](O)[C@H](C)C[C@@H]2C=C[C@@H]1C)C(=O)NCc1ccc(Cl)cc1 [Example 10, N-(4-Chlorobenzyl)-(2E,4E)-5-[(1S,2S,4aR,6R,7S,8S,8aS)-7-hydroxy-2,6,8-trimethyl-1,2,4a,5,6,7,8,8a-octahydronaphthalen-1-yl]-2-methylpenta-2,4-dienamide] | 140 µM | –
10 | C/C(=C\C=C\[C@@H]1[C@H]2[C@H](C)[C@@H](O)[C@H](C)C[C@@H]2C=C[C@@H]1C)C(=O)NCc1ccc(C)cc1 [Example 11, N-(4-Methylbenzyl)-(2E,4E)-5-[(1S,2S,4aR,6R,7S,8S,8aS)-7-hydroxy-2,6,8-trimethyl-1,2,4a,5,6,7,8,8a-octahydronaphthalen-1-yl]-2-methylpenta-2,4-dienamide] | 160 µM | –
11 | C/C(=C\C=C\[C@@H]1[C@H]2[C@H](C)[C@@H](O)[C@H](C)C[C@@H]2C=C[C@@H]1C)C(=O)NCCc1ccncc1 [Example 13, N-(Pyridin-4-ylethyl)-(2E,4E)-5-[(1S,2S,4aR,6R,7S,8S,8aS)-7-hydroxy-2,6,8-trimethyl-1,2,4a,5,6,7,8,8a-octahydronaphthalen-1-yl]-2-methylpenta-2,4-dienamide] | 5.7 µM | –
12 | C/C(=C\C=C\[C@@H]1[C@H]2[C@H](C)[C@@H](O)[C@H](C)C[C@@H]2C=C[C@@H]1C)C(=O)NCCc1ccc(O)cc1 [Example 14, N-(4-Hydroxyphenethyl)-(2E,4E)-5-[(1S,2S,4aR,6R,7S,8S,8aS)-7-hydroxy-2,6,8-trimethyl-1,2,4a,5,6,7,8,8a-octahydronaphthalen-1-yl]-2-methylpenta-2,4-dienamide] | 15 µM | –
13 | C/C(=C\C=C\[C@@H]1[C@H]2[C@H](C)[C@@H](O)[C@H](C)C[C@@H]2C=C[C@@H]1C)C(=O)Nc1ccccc1 [Example 16, N-Phenyl-(2E,4E)-5-[(1S,2S,4aR,6R,7S,8S,8aS)-7-hydroxy-2,6,8-trimethyl-1,2,4a,5,6,7,8,8a-octahydronaphthalen-1-yl]-2-methylpenta-2,4-dienamide] | 15 µM | –
14 | CNC(=O)/C(C)=C/C=C/[C@@H]1[C@H]2[C@H](C)[C@@H](O)[C@H](C)C[C@@H]2C=C[C@@H]1C [Example 17, N-Methyl-(2E,4E)-5-[(1S,2S,4aR,6R,7S,8S,8aS)-7-hydroxy-2,6,8-trimethyl-1,2,4a,5,6,7,8,8a-octahydronaphthalen-1-yl]-2-methylpenta-2,4-dienamide] | 2.6 µM | –
15 | CCCCNC(=O)/C(C)=C/C=C/[C@@H]1[C@H]2[C@H](C)[C@@H](O)[C@H](C)C[C@@H]2C=C[C@@H]1C [Example 18, N-(n-Butyl)-(2E,4E)-5-[(1S,2S,4aR,6R,7S,8S,8aS)-7-hydroxy-2,6,8-trimethyl-1,2,4a,5,6,7,8,8a-octahydronaphthalen-1-yl]-2-methylpenta-2,4-dienamide] | 2.4 µM | –
16 | C/C(=C\C=C\[C@@H]1[C@H]2[C@H](C)[C@@H](O)[C@H](C)C[C@@H]2C=C[C@@H]1C)C(=O)NC(C)(C)C [Example 19, N-(t-Butyl)-(2E,4E)-5-[(1S,2S,4aR,6R,7S,8S,8aS)-7-hydroxy-2,6,8-trimethyl-1,2,4a,5,6,7,8,8a-octahydronaphthalen-1-yl]-2-methylpenta-2,4-dienamide] | 15 µM | –
17 | C/C(=C\C=C\[C@@H]1[C@H]2[C@H](C)[C@@H](O)[C@H](C)C[C@@H]2C=C[C@@H]1C)C(=O)N(C)C [Example 20, N,N-Dimethyl-(2E,4E)-5-[(1S,2S,4aR,6R,7S,8S,8aS)-7-hydroxy-2,6,8-trimethyl-1,2,4a,5,6,7,8,8a-octahydronaphthalen-1-yl]-2-methylpenta-2,4-dienamide] | 1.4 µM | –
18 | C/C(=C\C=C\[C@@H]1[C@H]2[C@H](C)[C@@H](O)[C@H](C)C[C@@H]2C=C[C@@H]1C)C(=O)N(C)Cc1ccccc1 [Example 21, N-Benzyl-N-methyl-(2E,4E)-5-[(1S,2S,4aR,6R,7S,8S,8aS)-7-hydroxy-2,6,8-trimethyl-1,2,4a,5,6,7,8,8a-octahydronaphthalen-1-yl]-2-methylpenta-2,4-dienamide] | 4.9 µM | –
19 | C/C(=C\C=C\[C@@H]1[C@H]2[C@H](C)[C@@H](O)[C@H](C)C[C@@H]2C=C[C@@H]1C)C(N)=O [Example 22, (2E,4E)-5-[(1S,2S,4aR,6R,7S,8S,8aS)-7-Hydroxy-2,6,8-trimethyl-1,2,4a,5,6,7,8,8a-octahydronaphthalen-1-yl]-2-methylpenta-2,4-dienamide] | 8.8 µM | –
